Read-outs that look alike come from different tables or passages of the source.
What was measured:
[1] = test system: myelofibrosis patients; conditions: cited from earlier work
[2] = test system: CD34+ cells isolated from the bone marrow of two healthy donors; test: Megakaryocyte differentiation and proliferation, alone and with ruxolitinib, 10 days (FACS); format: cell-based; conditions: 240 h
From the text: The cells were then harvested for FACS analysis with live/dead stain and gating with CD34 (progenitor marker) and CD41a and CD42b (mature megakaryocyte markers).

SMILES: N#CC[C@H](C1CCCC1)n1cc(-c2ncnc3[nH]ccc23)cn1 [Ruxolitinib, (R)-3-(4-(7H-pyrrolo[2,3-d]pyrimidin-4-yl)-1H-pyrazol-1-yl)-3-cyclopentylpropanenitrile phosphate, reference compound]
- effect on mutant allele burden and bone marrow fibrosis ([1]; Curr Hematol Malig Rep 2017): does not affect the mutant allele burden or bone marrow fibrosis
- effect on red blood cell production and hemoglobin levels ([1]; in vivo): known to decrease red blood cell production and hemoglobin levels
- EC50 ([2]; 10 days, Donor 1, percent of cells double positive for CD41a and CD42b, read-out: Megakaryocyte differentiation EC50): 517 nM
- EC50 ([2]; 10 days, Donor 1, read-out: Megakaryocyte live count EC50): 312 nM
- EC50 ([2]; 10 days, Donor 1, read-out: Total live count EC50): 288 nM
- EC50 ([2]; 10 days, Donor 1, read-out: Viability EC50): 676 nM
- EC50 ([2]; 10 days, Donor 2, percent of cells double positive for CD41a and CD42b, read-out: Megakaryocyte differentiation EC50): 535 nM
- EC50 ([2]; 10 days, Donor 2, read-out: Megakaryocyte live count EC50): 258 nM
- EC50 ([2]; 10 days, Donor 2, read-out: Total live count EC50): 259 nM
- EC50 ([2]; 10 days, Donor 2, read-out: Viability EC50): 611 nM
- EC50 ([2]; 10 days, Mean of two donors, read-out: Megakaryocyte differentiation EC50): 526 nM
- EC50 ([2]; 10 days, Mean of two donors, read-out: Megakaryocyte live count EC50): 285 nM
- EC50 ([2]; 10 days, Mean of two donors, read-out: Viability EC50): 644 nM
- EC50 ([2]; read-out: Total live count EC50 (overall cell proliferation)): 274 nM
